Measured values reported in article PMC12459314, “Subcutaneous administration of a novel TRPM8 antagonist reverses cold hypersensitivity while attenuating the drop in core body temperature” (British journal of pharmacology, 2024).
“And” between values parts separate entries of the source, which are not always exact repeats. Equal entries are not always repeated.

Assays:
human TRPA1 = biological target: T1, human TRPA1 (Homo sapiens, UniProt O75762); assay: FlexStation Ca2+ flux assay in HEK293T cells transfected with human TRPA1; assay type: cell-based
T1 construct: expressed in transfected cells; host or cells: HEK293T
T1 sequence (O75762 whole entry): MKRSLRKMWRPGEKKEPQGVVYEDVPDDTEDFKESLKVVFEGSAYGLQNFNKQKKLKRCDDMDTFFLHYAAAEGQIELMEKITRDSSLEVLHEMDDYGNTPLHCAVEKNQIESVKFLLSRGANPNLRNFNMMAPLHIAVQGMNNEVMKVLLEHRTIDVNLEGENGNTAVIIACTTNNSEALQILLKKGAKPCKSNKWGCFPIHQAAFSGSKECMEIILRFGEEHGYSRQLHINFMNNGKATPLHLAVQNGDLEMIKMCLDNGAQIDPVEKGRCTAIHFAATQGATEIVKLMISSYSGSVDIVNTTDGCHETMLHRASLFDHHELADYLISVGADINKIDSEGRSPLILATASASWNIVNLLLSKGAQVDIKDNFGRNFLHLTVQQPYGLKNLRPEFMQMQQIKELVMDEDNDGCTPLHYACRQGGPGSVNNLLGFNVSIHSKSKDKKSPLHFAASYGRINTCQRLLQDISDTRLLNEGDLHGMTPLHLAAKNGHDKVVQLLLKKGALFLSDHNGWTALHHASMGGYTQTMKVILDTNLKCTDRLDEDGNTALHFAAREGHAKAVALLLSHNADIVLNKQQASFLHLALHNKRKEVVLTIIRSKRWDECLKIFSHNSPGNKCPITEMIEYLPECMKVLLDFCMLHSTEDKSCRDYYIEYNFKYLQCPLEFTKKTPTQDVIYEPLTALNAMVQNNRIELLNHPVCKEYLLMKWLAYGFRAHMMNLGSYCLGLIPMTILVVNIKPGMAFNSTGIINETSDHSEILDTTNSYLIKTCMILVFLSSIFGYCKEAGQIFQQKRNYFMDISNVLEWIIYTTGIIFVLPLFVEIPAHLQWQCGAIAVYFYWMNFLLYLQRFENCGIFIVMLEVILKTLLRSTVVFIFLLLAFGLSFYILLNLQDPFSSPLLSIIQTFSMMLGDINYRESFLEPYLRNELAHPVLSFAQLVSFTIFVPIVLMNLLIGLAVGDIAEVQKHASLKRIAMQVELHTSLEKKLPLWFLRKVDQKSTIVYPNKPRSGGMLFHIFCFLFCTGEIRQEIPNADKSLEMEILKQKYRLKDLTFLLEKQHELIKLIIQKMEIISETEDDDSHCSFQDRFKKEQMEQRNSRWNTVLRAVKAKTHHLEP
Method: The human embryonic kidney cell line (HEK293T, CRL-1573, RRID: CVCL_0045) was purchased from the American Type Culture Collection (Manassas, USA) and was maintained in Dulbecco’s Minimal Essential Medium (DMEM, Cellgro10013CV, Corning, Tewksbury, USA) that was supplemented with 10% fetal bovine serum (Gemini Bio-products), 2-mM L-glutamine (Invitrogen) and 100 U/mL penicillin and streptomycin (Invitrogen) and cultured in an incubator at 37°C, 5% CO2 and 95% humidity. Human TRPV1 and TRPA1 plasmid DNA (gift from D. Julius) were transiently bulk transfected individually into HEK293T cells using the FuGene HD transfection reagent (TFR, Promega, Madison, WI, USA) at a 3:1 ratio (TFR:DNA). Transfected cells were seeded at 10,000 cells per well in a volume of 25 μl into black walled collagen coated 384-well microtiter plates and cultured in an incubator at 37°C, 5% CO2 and 95% humidity for 48 h prior to the initiation of calcium mobilization experiments performed on a FlexStation 3 (Molecular Devices, Sunnyvale, CA, USA) platform equipped with a 16-channel robotic pipettor head and FLIPR tetra pipette tips. At 46 h post transfection, cell monolayers were preloaded with 25 μl of the FLIPR Calcium 6 dye (Molecular Devices) for 2 h in an incubator at 37°C, 5% CO2 and 95% humidity according to the manufacturer’s instructions. The plate was transferred to a FlexStation 3 microplate reader. Relative fluorescence units (RFUs) (Ex. 485 nm, Em 525 nm) were then acquired at 37°C in the kinetic mode. The run time for the agonist (1st) and antagonist (2nd) reads were 60 s each, for a total run time of 120 s, with an interval of 3.1 s between reads in the same well to allow all 16 wells in a column to be read sequentially, and the photomultiplier tube (PMT) level was set at medium, with 6 flashes per read. Baseline Fluo-6 RFUs were acquired for 18 s prior to the addition of compound in both the agonist and antagonist reads. For the first addition agonist read, the volume in the well was 50 μl, the pipette height was set at 40 μl, and 12.5 μl of the test compound was delivered at a speed of 2 μl·s^−1 after the baseline RFU’s acquisition period at 19 s, and the RFUs were acquired for an additional 41 s. For the second addition antagonist read, the volume in the well was 62.5 μl, the pipette height was set at 40 μl, and 12.5 μl of an EC80 agonist concentration was delivered at a speed of 2 μl/s after the baseline RFU’s acquisition period at 19 s, and the RFUs were acquired for an additional 41 s. The FlexStation 3 instrument settings, automated pipetting and data collection were all controlled by the SoftMax Pro software, version 7.1.2.
To analyse the agonist and antagonist Ca^2+ mobilization Fluo-6 RFU’s kinetic data, the RFU’s readings acquired throughout the 60-s acquisition period for each individual well were divided by the average RFU values acquired during the first 18-s baseline acquisition period from the same well to calculate a fold over baseline (FOB) ratio.

[1] = biological target: T2, dopamine transporter (DAT) (Homo sapiens, UniProt Q01959); assay: SAFETYscan E/IC50 ELECT, dopamine transporter antagonist assay; assay type: cell-based; conditions: single experiment
T2 construct: purchased Eurofins DiscoverX (SAFETYscan E/IC50 ELECT service)
T2 sequence (Q01959 whole entry): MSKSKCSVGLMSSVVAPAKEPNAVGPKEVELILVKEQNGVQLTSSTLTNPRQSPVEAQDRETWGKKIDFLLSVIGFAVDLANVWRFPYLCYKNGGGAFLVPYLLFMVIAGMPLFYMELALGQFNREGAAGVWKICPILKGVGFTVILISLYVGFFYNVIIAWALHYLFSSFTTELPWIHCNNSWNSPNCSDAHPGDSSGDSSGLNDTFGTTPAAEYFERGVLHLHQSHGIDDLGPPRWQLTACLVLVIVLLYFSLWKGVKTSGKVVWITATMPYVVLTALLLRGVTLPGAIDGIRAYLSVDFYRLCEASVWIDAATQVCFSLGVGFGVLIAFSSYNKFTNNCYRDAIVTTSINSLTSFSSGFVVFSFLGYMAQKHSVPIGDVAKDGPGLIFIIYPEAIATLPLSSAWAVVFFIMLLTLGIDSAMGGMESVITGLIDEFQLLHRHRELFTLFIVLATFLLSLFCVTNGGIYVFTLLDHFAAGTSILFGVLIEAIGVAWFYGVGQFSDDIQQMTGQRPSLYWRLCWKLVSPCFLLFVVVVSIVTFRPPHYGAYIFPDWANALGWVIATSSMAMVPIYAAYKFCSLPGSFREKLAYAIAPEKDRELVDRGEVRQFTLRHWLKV
Method: (§1) Assessment of the safety profile of VBJ103 across 78 assays using recombinant human targets was performed with the SAFETYscan E/IC50 ELECT service by Eurofins DiscoverX (San Diego, CA, USA). […] The assays were performed utilizing PathHunter enzyme fragment complementation (EFC) technology, FLIPR®-based cellular screening assays, KINOMEscan kinase binding assays and a variety of enzymatic assays. Further potential functional activity at opioid receptors was performed in the gpcrSCAN service by Eurofins DiscoverX. Hit Hunter® cAMP assays were carried out using Enzyme Fragment Complementation (EFC) with β-galactosidase (β-Gal) as the functional reporter.

[2] = biological target: T3, μ opioid receptor (OPRM1) (Homo sapiens, UniProt P35372); assay: Eurofins DiscoverX opioid receptor assays (SAFETYscan; HitHunter cAMP), OPRM1; assay type: cell-based
T3 construct: purchased Eurofins DiscoverX (SAFETYscan; gpcrSCAN; HitHunter cAMP XS+)
T3 sequence (P35372 whole entry): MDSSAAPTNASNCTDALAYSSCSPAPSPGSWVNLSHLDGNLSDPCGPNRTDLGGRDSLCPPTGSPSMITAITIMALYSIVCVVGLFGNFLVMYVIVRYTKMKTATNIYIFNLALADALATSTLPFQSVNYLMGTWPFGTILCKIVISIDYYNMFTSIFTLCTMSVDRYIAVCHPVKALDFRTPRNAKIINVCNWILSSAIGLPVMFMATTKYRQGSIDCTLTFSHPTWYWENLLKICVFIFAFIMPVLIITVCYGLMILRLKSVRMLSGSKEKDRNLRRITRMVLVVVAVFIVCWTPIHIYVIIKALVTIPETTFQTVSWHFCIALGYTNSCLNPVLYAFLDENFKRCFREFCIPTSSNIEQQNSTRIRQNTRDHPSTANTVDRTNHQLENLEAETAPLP
Method: as §1
(§2) Assessment of potential positive allosteric modulator (PAM) activity at μ, δ and κ opioid receptors was performed with the DiscoverX HitHunter cAMP XS+ assay by Eurofins DiscoverX (San Diego, CA, USA).

[3] = biological target: T4, δ opioid receptor (OPRD1) (Homo sapiens, UniProt P41143); assay: Eurofins DiscoverX opioid receptor assays (SAFETYscan; HitHunter cAMP), OPRD1; assay type: cell-based
T4 construct: purchased Eurofins DiscoverX (SAFETYscan; gpcrSCAN; HitHunter cAMP XS+)
T4 sequence (P41143 whole entry): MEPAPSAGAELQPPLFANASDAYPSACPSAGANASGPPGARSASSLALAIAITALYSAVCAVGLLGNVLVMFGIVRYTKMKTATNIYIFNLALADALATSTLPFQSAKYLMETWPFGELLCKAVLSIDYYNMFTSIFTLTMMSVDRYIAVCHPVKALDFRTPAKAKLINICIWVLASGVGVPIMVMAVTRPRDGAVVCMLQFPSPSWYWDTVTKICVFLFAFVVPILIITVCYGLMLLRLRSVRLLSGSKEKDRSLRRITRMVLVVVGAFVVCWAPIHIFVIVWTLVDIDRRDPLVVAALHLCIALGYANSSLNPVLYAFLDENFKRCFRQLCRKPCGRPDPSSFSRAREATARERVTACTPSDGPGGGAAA
Method: as §1, §2

[4] = test system: 78 recombinant human targets; assay: SAFETYscan E/IC50 ELECT panel of 78 assays; conditions: 10 concentrations, 0.005 to 100 μM; single experiment
Method: Assessment of the safety profile of VBJ103 across 78 assays using recombinant human targets was performed with the SAFETYscan E/IC50 ELECT service by Eurofins DiscoverX (San Diego, CA, USA). Data represent a single experiment and therefore should be considered preliminary. The assays were performed utilizing PathHunter enzyme fragment complementation (EFC) technology, FLIPR®-based cellular screening assays, KINOMEscan kinase binding assays and a variety of enzymatic assays. Further potential functional activity at opioid receptors was performed in the gpcrSCAN service by Eurofins DiscoverX. Hit Hunter® cAMP assays were carried out using Enzyme Fragment Complementation (EFC) with β-galactosidase (β-Gal) as the functional reporter.

[5] = ref Journigan et al, 2020; cited from earlier work

EC50 (human TRPA1; Figure 1g experiment, without HC-030031): 960 nM and 955 nM
antagonist activity at TRPA1 (human TRPA1; against an EC80 concentration (10 μM) of AITC): no detectable antagonist activity
EC50 (human TRPA1; agonist read): 1040 nM and > 1000 nM
shift in TRPA1 EC50 (human TRPA1; with versus without HC-030031 (10 μM)): 3.2 fold
Structure (SMILES): O=C(NC1CCC2(CCCC2)CC1)c1ccc(-c2ccccc2)cc1 [VBJ103, N-(Spiro[4.5]decan-8-yl)-[1,1′-biphenyl]-4-carboxamide]
IC50 ([1]; 10 concentrations, 0.005 to 100 μM): 125 nM and ~125 nM
DAT maximal inhibition ([1]; in relation to the control GBR 12909): ~ 60%
Emax ([2]; OPRM1, Positive Allosteric Modulator format, read-out: Max Response, cAMP): 14.5%
EC50 ([2]; read-out: RC50 (EC50), cAMP): > 100000 nM
activity at μ opioid receptor ([2]; safety panel): no activity
Emax ([3]; Positive Allosteric Modulator format, read-out: Max Response, cAMP): 0%
EC50 ([3]; read-out: RC50 (EC50), cAMP): > 100000 nM
activity at δ opioid receptor ([3]; safety panel): no activity
effects across the safety panel [4]: only dose-dependent effect detected
Mouse Liver microsomes, T1/2 [5]: 30 min
